From ChEMBL document CHEMBL4308868 (Bioorg Med Chem Lett, 2019)

These compounds were tested against T1, Tyrosinase (Agaricus bisporus, UniProt O42713).
T1 sequence (O42713 whole entry): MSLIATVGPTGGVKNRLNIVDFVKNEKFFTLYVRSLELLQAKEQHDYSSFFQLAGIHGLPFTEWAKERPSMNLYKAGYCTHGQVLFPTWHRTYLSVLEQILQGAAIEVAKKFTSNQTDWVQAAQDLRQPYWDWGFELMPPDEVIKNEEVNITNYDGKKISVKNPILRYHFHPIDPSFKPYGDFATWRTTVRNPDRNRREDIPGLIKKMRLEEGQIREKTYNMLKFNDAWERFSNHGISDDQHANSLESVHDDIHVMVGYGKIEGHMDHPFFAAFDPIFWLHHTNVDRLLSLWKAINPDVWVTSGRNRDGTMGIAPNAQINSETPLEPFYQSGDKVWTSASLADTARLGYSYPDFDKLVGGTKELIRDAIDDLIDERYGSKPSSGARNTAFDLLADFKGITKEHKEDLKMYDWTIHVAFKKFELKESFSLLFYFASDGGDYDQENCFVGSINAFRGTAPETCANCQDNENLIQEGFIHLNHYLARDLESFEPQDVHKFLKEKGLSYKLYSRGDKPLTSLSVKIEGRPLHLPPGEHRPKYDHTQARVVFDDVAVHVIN
Description: Inhibition of mushroom tyrosinase using L-tyrosine as substrate measured after 20 mins by spectrophotometric method

**Q.** How did the IC50 turn out when `CCOc1cc(C(C)C)c(C(=O)CCC(=O)OCc2ccccc2)cc1C` was run?
**A.** > 500 µM

**Q.** Which IC50 does the source give for `CCOc1cc(C(C)C)ccc1C` here?
**A.** > 500 µM

**Q.** `C/C=C/COC(=O)CCC(=O)c1cc(C(C)C)c(OCC)cc1C` was tested. Which IC50 did it give?
**A.** 102 µM

**Q.** With `CCOc1cc(C(C)C)c(C(=O)CCC(=O)OC)cc1C` as the compound, how does the IC50 read?
**A.** > 500 µM

**Q.** Which IC50 does the source give for `CCOc1cc(C)ccc1C(C)C` here?
**A.** > 500 µM

**Q.** With `CCCOC(=O)CCC(=O)c1cc(C)c(OCC)cc1C(C)C` as the compound, how does the IC50 read?
**A.** 218 µM

**Q.** How did the IC50 turn out when `CCCCOC(=O)CCC(=O)c1cc(C(C)C)c(OCC)cc1C` was run?
**A.** 191 µM

**Q.** `C=CCOC(=O)CCC(=O)c1cc(C(C)C)c(OCC)cc1C` was tested. Which IC50 did it give?
**A.** 126 µM

**Q.** With `CCOc1cc(C)c(C(=O)CCC(=O)OCc2ccccc2)cc1C(C)C` as the compound, how does the IC50 read?
**A.** > 500 µM

**Q.** `CCOc1cc(C)c(C(=O)CCC(=O)OC)cc1C(C)C` was tested. Which IC50 did it give?
**A.** > 500 µM

**Q.** Which IC50 does the source give for `CCCCOC(=O)CCC(=O)c1cc(C)c(OCC)cc1C(C)C` here?
**A.** 176 µM

**Q.** For `CCCOC(=O)CCC(=O)c1cc(C(C)C)c(OCC)cc1C`, which IC50 is on record?
**A.** 154 µM

**Q.** `CCOC(=O)CCC(=O)c1cc(C(C)C)c(OCC)cc1C` was tested. Which IC50 did it give?
**A.** 212 µM

**Q.** With `C/C=C/COC(=O)CCC(=O)c1cc(C)c(OCC)cc1C(C)C` as the compound, how does the IC50 read?
**A.** 244 µM

**Q.** Which IC50 does the source give for `CCOC(=O)CCC(=O)c1cc(C)c(OCC)cc1C(C)C` here?
**A.** > 500 µM

**Q.** Which IC50 does the source give for `CCOc1cc(C)c(C(=O)CCC(=O)O)cc1C(C)C` here?
**A.** > 500 µM

**Q.** For `CCOc1cc(C(C)C)c(C(=O)CCC(=O)O)cc1C`, which IC50 is on record?
**A.** > 500 µM

**Q.** With `Cc1ccc(C(C)C)cc1O` [CARVACROL] as the compound, how does the IC50 read?
**A.** > 500 µM
